In ChEMBL document CHEMBL3217755, “Design, synthesis and biological evaluation of biphenyl urea derivatives as novel VEGFR-2 inhibitors” (Medchemcomm, 2013):

Legend:
SK-BR-3 = test: Antiproliferative activity against human SK-BR-3 cells after 48 hrs by MTT assay; format: functional, cell-based; conditions: SK-BR-3, 48 h
LoVo = test: Antiproliferative activity against human LoVo cells after 48 hrs by MTT assay; format: functional, cell-based
K562 = test: Antiproliferative activity against human K562 cells after 48 hrs by MTT assay; conditions: K562, 48 h
SH-SY5Y = test: Antiproliferative activity against human SH-SY5Y cells after 48 hrs by MTT assay; format: functional, cell-based
A549 = test: Antiproliferative activity against human A549 cells after 48 hrs by MTT assay; format: functional, cell-based; conditions: A549, 48 h
[1] = Antiproliferative activity against human SGC7901 cells after 48 hrs by MTT assay; format: functional, cell-based; conditions: SGC-7901, 48 h
HeLa = test: Antiproliferative activity against human HeLa cells after 48 hrs by MTT assay; format: functional, cell-based
[2] = Antiproliferative activity against human SMMC7721 cells after 48 hrs by MTT assay; format: functional, cell-based; conditions: SMMC-7721, 48 h
MDA-MB-231 = test: Antiproliferative activity against human MDA-MB-231 cells after 48 hrs by MTT assay; format: functional, cell-based; conditions: MDA-MB-231, 48 h

SMILES	IC50 (SK-BR-3) [µM]	IC50 (LoVo) [µM]	IC50 (K562) [µM]	IC50 (SH-SY5Y) [µM]	IC50 (A549) [µM]	IC50 (HeLa) [µM]	IC50 (MDA-MB-231) [µM]	IC50 [1] [µM]	IC50 [2] [µM]
COc1cc(-c2cc(NC(=O)Nc3ccc(OCCN4CCCC4)cc3)cc(OC)c2OC)ccc1/C(C)=N/O	38.9	49.2	4.81						
CCN(CC)CCOc1ccc(C)c(NC(=O)Nc2cc(OC)c(OC)c(-c3ccc(/C(C)=N/O)c(OC)c3)c2)c1	14.7		1.25	43.5	11.2				
CCN(CC)CCOc1ccc(NC(=O)Nc2cc(OC)c(OC)c(-c3ccc(/C(C)=N/O)c(OC)c3)c2)cc1		48.4	1.29	18.4	11.7	13.4	20.3	58.1	36.4
CNC(=O)c1cc(Oc2ccc(NC(=O)Nc3ccc(Cl)c(C(F)(F)F)c3)cc2)ccn1 [SORAFENIB]	5.21				3.36	7.68		102	9.86
COc1cc(-c2cc(NC(=O)Nc3ccc(OCCN(C)C)cc3)cc(OC)c2OC)ccc1/C(C)=N/O			8.58	6.2		63.2	35.2	34.2	

The next lines start with results.

IC50 (SK-BR-3) [µM]	IC50 (LoVo) [µM]	IC50 (K562) [µM]	IC50 (SH-SY5Y) [µM]	IC50 (A549) [µM]	IC50 (HeLa) [µM]	IC50 (MDA-MB-231) [µM]	SMILES	IC50 [1] [µM]	IC50 [2] [µM]
		0.29	4.91	11.7	92.3		COc1cc(-c2cc(NC(=O)Nc3ccc(OCCCN4CCOCC4)cc3)cc(OC)c2OC)ccc1/C(C)=N/O	6.8	9.88
		15.8	18.4	23.7	243	49.2	COc1cc(-c2cc(NC(=O)Nc3ccc(OCCCN4CCOCC4)cc3C)cc(OC)c2OC)ccc1/C(C)=N/O		33.3
